Assay results taken from patent publication US12281122B1, “PI3K inhibitors” (Cogent Biosciences, Inc., priority 2023, dated 2025).

Legend:
[1] = test system: T47D (PI3Kα-H1047R) cell line; test: HTRF phospho-AKT(S473) cell assay in T47D cells; type: cell-based, human; settings: Homo sapiens, 2 hours compound incubation
Outline: (§1)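 T47D: RPMI + 10% FBS + 0.2 units/mL insulin, top 5 μM. SKBR3: McCoy's 5A + 10% FBS, top 10 μM, 70 ng/ml PDGF-BB last 15 min. Both: 12-pt 1:3, 2 h, 37° C, max 0.5% DMSO; HTRF pAKT(S473); IC50.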

[2] = test system: SKBR3 (PI3Kα-Wild Type) cell line; test: HTRF phospho-AKT(S473) cell assay in SKBR3 cells; type: cell-based, human; settings: Homo sapiens, SK-BR-3, 2 hours compound incubation, PDGF-BB stimulated
Outline: as §1

[3] = HTRF phospho-AKT(S473), T47D (PI3Kα-H1047R) cells
[4] = HTRF phospho-AKT(S473), SKBR3 (PI3Kα-Wild Type) cells
[5] = T47D (PI3Kα-H1047R) cell line, phospho-AKT(S473) HTRF
[6] = SKBR3 (PI3Kα-Wild Type) cell line, phospho-AKT(S473) HTRF

Structure (SMILES)	IC50 [1, 3]	IC50 [2, 4]	IC50 [1, 5]	IC50 [2, 6]
Cc1cc([C@@H](C)Nc2ccc(Cl)nc2C(=O)NS(C)(=O)=O)c2nc([C@H]3[C@@H]4CN(c5cnc(C)c(F)c5)C[C@@H]43)n(C)c(=O)c2c1 [Compound 828, 6-chloro-3-(((R)-1-(2-((1R,5S,6r)-3-(5-fluoro-6-methylpyridin-3-yl)-3-azabicyclo[3.1.0]hexan-6-yl)-3,6-dimethyl-4-oxo-3,4-dihydroquinazolin-8-yl)ethyl)amino)-N-(methylsulfonyl) picolinamide]	0.5 to 1 µM	≥ 5 µM		
Cc1cc([C@@H](C)Nc2ccc(Cl)nc2C(=O)NS(C)(=O)=O)c2nc([C@H]3[C@@H]4CN(c5ccc(C)nc5)C[C@@H]43)n(C)c(=O)c2c1 [Compound 829, 6-chloro-3-(((R)-1-(3,6-dimethyl-2-((1R,5S,6r)-3-(6-methylpyridin-3-yl)-3-azabicyclo[3.1.0]hexan-6-yl)-4-oxo-3,4-dihydroquinazolin-8-yl)ethyl)amino)-N-(methylsulfonyl) picolinamide]	0.25 to 0.5 µM	≥ 5 µM		
Cc1cc([C@@H](C)Nc2ccc(Cl)nc2C(=O)NS(C)(=O)=O)c2nc(C3(c4ccccc4)CC3)n(C)c(=O)c2c1 [Compound 830, (R)-6-chloro-3-((1-(3,6-dimethyl-4-oxo-2-(1-phenylcyclopropyl)-3,4-dihydroquinazolin-8-yl)ethyl)amino)-N-(methylsulfonyl) picolinamide]	0.25 to 0.5 µM	≥ 5 µM		
Cc1cc([C@@H](C)Nc2ccc(Cl)nc2C(=O)NS(C)(=O)=O)c2nc(C3CCN(c4ccccc4)CC3)n(C)c(=O)c2c1 [Compound 831, (R)-6-chloro-3-((1-(3,6-dimethyl-4-oxo-2-(1-phenylpiperidin-4-yl)-3,4-dihydroquinazolin-8-yl)ethyl)amino)-N-(methylsulfonyl) picolinamide]	0.25 to 0.5 µM	1 to 5 µM		
Cc1cc([C@@H](C)Nc2ccc(Cl)nc2C(=O)NS(C)(=O)=O)c2nc(-c3ccc4[nH]ncc4c3)n(C)c(=O)c2c1 [Compound 832, (R)-3-((1-(2-(1H-indazol-5-yl)-3,6-dimethyl-4-oxo-3,4-dihydroquinazolin-8-yl)ethyl)amino)-6-chloro-N-(methylsulfonyl) picolinamide]	0.25 to 0.5 µM	1 to 5 µM		
Cc1cc([C@@H](C)Nc2ccc(Cl)nc2C(=O)NS(C)(=O)=O)c2nc(-c3ccc4c(c3)ncn4C)n(C)c(=O)c2c1 [Compound 833, (R)-6-chloro-3-((1-(3,6-dimethyl-2-(1-methyl-1H-benzo[d]imidazol-5-yl)-4-oxo-3,4-dihydroquinazolin-8-yl)ethyl)amino)-N-(methylsulfonyl) picolinamide]	0.25 to 0.5 µM	1 to 5 µM		
Cc1cc([C@@H](C)Nc2ccc(Cl)nc2C(=O)NS(C)(=O)=O)c2nc(-c3ccc4cn[nH]c4c3)n(C)c(=O)c2c1 [Compound 834, (R)-3-((1-(2-(1H-indazol-6-yl)-3,6-dimethyl-4-oxo-3,4-dihydroquinazolin-8-yl)ethyl)amino)-6-chloro-N-(methylsulfonyl) picolinamide]	0.5 to 1 µM	1 to 5 µM		
Cc1cc([C@@H](C)Nc2ccc(Cl)nc2C(=O)NS(C)(=O)=O)c2nc(-c3ccc4cn(C)nc4c3)n(C)c(=O)c2c1 [Compound 835, (R)-6-chloro-3-((1-(3,6-dimethyl-2-(2-methyl-2H-indazol-6-yl)-4-oxo-3,4-dihydroquinazolin-8-yl)ethyl)amino)-N-(methylsulfonyl) picolinamide]	0.25 to 0.5 µM	1 to 5 µM		
Cc1cc([C@@H](C)Nc2ccc(Cl)nc2C(=O)NS(C)(=O)=O)c2nc(-c3ccc4nn(C(F)F)cc4c3)n(C)c(=O)c2c1 [Compound 836, (R)-6-chloro-3-((1-(2-(2-(difluoromethyl)-2H-indazol-5-yl)-3,6-dimethyl-4-oxo-3,4-dihydroquinazolin-8-yl)ethyl)amino)-N-(methylsulfonyl) picolinamide]	< 0.25 µM	1 to 5 µM		
Cc1cc([C@@H](C)Nc2ccc(Cl)nc2C(=O)NS(C)(=O)=O)c2nc(C3CCN(c4ncc(C#N)cc4C)CC3)n(C)c(=O)c2c1 [Compound 837, (R)-6-chloro-3-((1-(2-(1-(5-cyano-3-methylpyridin-2-yl)piperidin-4-yl)-3,6-dimethyl-4-oxo-3,4-dihydroquinazolin-8-yl)ethyl)amino)-N-(methylsulfonyl) picolinamide]	0.25 to 0.5 µM	1 to 5 µM		
Cc1cc([C@@H](C)Nc2ccc(Cl)nc2C(=O)NS(C)(=O)=O)c2nc(-c3ccc(-c4ccn(C)n4)cn3)n(C)c(=O)c2c1 [Compound 838, (R)-6-chloro-3-((1-(3,6-dimethyl-2-(5-(1-methyl-1H-pyrazol-3-yl)pyridin-2-yl)-4-oxo-3,4-dihydroquinazolin-8-yl)ethyl)amino)-N-(methylsulfonyl) picolinamide]	0.25 to 0.5 µM	1 to 5 µM		
Cc1cc([C@@H](C)Nc2ccc(Cl)nc2C(=O)NS(C)(=O)=O)c2nc(-c3cc4cn(C)nc4cn3)n(C)c(=O)c2c1 [Compound 839, (R)-6-chloro-3-((1-(3,6-dimethyl-2-(2-methyl-2H-pyrazolo[3,4-c]pyridin-5-yl)-4-oxo-3,4-dihydroquinazolin-8-yl)ethyl)amino)-N-(methylsulfonyl) picolinamide]	0.25 to 0.5 µM	1 to 5 µM		
Cc1cc2c(=O)n(C)c(-c3ccc4nn(C)cc4c3)nc2c([C@@H](C)Nc2ccc(Cl)nc2C(=O)NS(C)(=O)=O)n1 [Compound 840, (R)-6-chloro-3-((1-(3,6-dimethyl-2-(2-methyl-2H-indazol-5-yl)-4-oxo-3,4-dihydropyrido[3,4-d]pyrimidin-8-yl)ethyl)amino)-N-(methylsulfonyl) picolinamide]			1 to 5 µM	1 to 5 µM
Cc1cc([C@@H](C)Nc2ccc(Cl)nc2C(=O)NS(C)(=O)=O)c2nc(-c3ccc4nn(C)cc4n3)n(C)c(=O)c2c1 [Compound 841, (R)-6-chloro-3-((1-(3,6-dimethyl-2-(2-methyl-2H-pyrazolo [4,3-b]pyridin-5-yl)-4-oxo-3,4-dihydroquinazolin-8-yl)ethyl)amino)-N-(methylsulfonyl) picolinamide]			0.25 to 0.5 µM	1 to 5 µM
Cc1cc([C@@H](C)Nc2ccc(Cl)nc2C(=O)NS(C)(=O)=O)c2nc(-c3ccc4nn(C)c(C)c4c3)n(C)c(=O)c2c1 [Compound 842, (R)-6-chloro-3-((1-(2-(2,3-dimethyl-2H-indazol-5-yl)-3,6-dimethyl-4-oxo-3,4-dihydroquinazolin-8-yl)ethyl)amino)-N-(methylsulfonyl) picolinamide]			< 0.25 µM	1 to 5 µM
Cc1cc([C@@H](C)Nc2ccc(Cl)nc2C(=O)NS(C)(=O)=O)c2nc(-c3ccc(-c4nc(C)no4)nc3)n(C)c(=O)c2c1 [Compound 843, (R)-6-chloro-3-((1-(3,6-dimethyl-2-(6-(3-methyl-1,2,4-oxadiazol-5-yl)pyridin-3-yl)-4-oxo-3,4-dihydroquinazolin-8-yl)ethyl)amino)-N-(methylsulfonyl) picolinamide]			0.25 to 0.5 µM	1 to 5 µM
Cc1cc([C@@H](C)Nc2ccc(Cl)nc2C(=O)NS(C)(=O)=O)c2nc(-c3ccc4nc(C)cn4c3)n(C)c(=O)c2c1 [Compound 844, (R)-6-chloro-3-((1-(3,6-dimethyl-2-(2-methylimidazo[1,2-a]pyridin-6-yl)-4-oxo-3,4-dihydroquinazolin-8-yl)ethyl)amino)-N-(methylsulfonyl) picolinamide]			0.25 to 0.5 µM	1 to 5 µM
